Patent publication US20240277846A1, “MAGNETIC BIOMOLECULE-METAL ION SELF-ASSEMBLED COMPLEX FOR TREATMENT” (priority 2023, published 2024)
Where a name gives a salt, the structure may show the parent alone.

Experiments:
macrophages = test: Macrophage polarization (immunofluorescence Arg-1/iNOS, flow cytometry); assay type: cell-based; details: immunofluorescence staining
Text: FIG. 15 to FIG. 17 show experiments according to each of the treatment conditions in cells before experimenting in rats according to Experimental Example 2 below. As shown in a following table 6, the conditions were divided into the control group: PBS only based treatment, Fe-ATP based treatment, ATP only based treatment, FeCl2 based treatment, and Fe3O4 based treatment. FIG. 15 is the result of identifying disassembling of the Fe-ATP self-assembly. Referring to FIG. 15, under each treatment condition, an experiment result was identified via immunofluorescence staining of […] (M2 polarization marker), iNOS (M1 polarization marker), and Dapi. […] This was identified through flow cytometry.

P2X7 = molecular target: T1, P2X7 (Homo sapiens, UniProt Q99572); test: Western blotting of macrophage signaling, P2X7; assay type: cell-based; details: low concentration
T1 construct: endogenous in cells
T1 sequence (Q99572 1-595): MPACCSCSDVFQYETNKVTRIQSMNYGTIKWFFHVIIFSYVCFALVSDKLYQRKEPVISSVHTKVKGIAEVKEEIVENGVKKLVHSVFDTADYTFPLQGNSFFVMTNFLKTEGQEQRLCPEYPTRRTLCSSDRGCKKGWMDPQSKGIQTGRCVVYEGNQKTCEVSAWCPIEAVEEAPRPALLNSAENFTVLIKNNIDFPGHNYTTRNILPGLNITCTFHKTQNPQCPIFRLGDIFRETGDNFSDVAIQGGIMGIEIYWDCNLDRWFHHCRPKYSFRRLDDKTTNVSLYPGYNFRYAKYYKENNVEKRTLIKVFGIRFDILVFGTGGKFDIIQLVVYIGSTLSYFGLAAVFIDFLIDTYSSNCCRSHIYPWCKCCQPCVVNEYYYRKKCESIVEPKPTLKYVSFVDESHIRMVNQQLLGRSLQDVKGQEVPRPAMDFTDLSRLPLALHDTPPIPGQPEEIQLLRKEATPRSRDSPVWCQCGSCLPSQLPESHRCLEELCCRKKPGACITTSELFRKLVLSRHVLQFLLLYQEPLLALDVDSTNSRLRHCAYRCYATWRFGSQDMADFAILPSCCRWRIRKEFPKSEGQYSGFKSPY
Text: (§1) It was identified that the Fe-ATP self-assembly was disassembled into the ATP and the iron ion such that the ATP was released therefrom, and this enabled AIP-mediated anti-inflammatory polarization of macrophages.

P2Y1 = molecular target: T2, P2Y1 (Homo sapiens, UniProt P47900); test: Western blotting of macrophage signaling, P2Y1; assay type: cell-based; details: low concentration
T2 construct: endogenous in cells
T2 sequence (P47900 whole entry, species assumed): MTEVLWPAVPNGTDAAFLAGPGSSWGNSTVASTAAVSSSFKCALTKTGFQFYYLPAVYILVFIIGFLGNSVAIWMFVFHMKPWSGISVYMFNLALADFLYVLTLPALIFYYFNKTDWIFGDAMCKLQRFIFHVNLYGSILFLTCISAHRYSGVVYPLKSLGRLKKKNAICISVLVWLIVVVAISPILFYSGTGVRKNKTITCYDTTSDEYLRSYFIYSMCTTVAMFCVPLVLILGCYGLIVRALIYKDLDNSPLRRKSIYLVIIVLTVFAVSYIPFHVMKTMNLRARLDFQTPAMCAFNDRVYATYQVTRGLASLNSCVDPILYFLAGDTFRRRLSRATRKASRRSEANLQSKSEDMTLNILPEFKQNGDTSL
Text: as §1

stem cells = test: Osteogenic differentiation of stem cells (RUNX2, osteocalcin immunofluorescence, ALP staining); assay type: cell-based
Text: FIG. 27 and FIG. 28 show experiments according to each of treatment conditions in cells before experimenting in rabbits according to Experimental Example 3 below. As shown in a following table 7, the treatment conditions include treatment with only PBS as a control group, treatment with Fe-AMP, treatment with AMP only, treatment with a combination of adenosine and PO4 (Adenosine+PO4), treatment with Adenosine, treatment with PO4, treatment with FeCl2, and treatment with an osteogenic induction medium. In this regard, FeCl2 was disassembled into Fe^2+ and Cl—. Thus, the treatment with FeCl2 was added to compare the released Fe^2+ therefrom with the Fe^2+ released from the […]. […] The adenosine obtained via decomposition of the AMP released from the Fe-AMP self-assembly was similar to osteogenic differentiation medium, and was analyzed via actin and dapi-positive nuclei and ALP chemical staining along with immunofluorescence staining of RUNX2 and osteocalcin. […] In other words, the Fe-AMP self-assembly induces osteogenic differentiation of stem cells through adenosine signaling. This was identified via immunofluorescence staining of RUNX2 and osteocalcin along with actin, dapi-positive nuclei, and ALP chemical staining.

ROS = test: IVIS L-012 ROS signal analysis in vivo; design: species or system mouse; details: 2 hours after the injection
Experimental: Luminescent probes L-012 (Wako Chemical, Korea) were dissolved in […] a thus prepared solution was maintained in a fresh state just before the experiment. In a 50 […] injection volume, 25 mg/kg thereof was administered subcutaneously to a back of a mouse. Chemiluminescence (CL) release assessment was started immediately after the injection of L-012 using indiGOTM software and IVIS (In vivo Imaging System, NightOWL II LB 983, BERTHOLD Technologies GmbH, Germany). To collect sufficient CL release data, the mouse was exposed thereto for 20 seconds each time. CL released from the mouse skin was recorded and visualized in real time, and then the CL released in an area of interest was quantified as total flux (photons/second).

hMSCs = test: Western blotting of osteogenic differentiation via adenosine-A2B receptor signaling; assay type: cell-based

Structure (SMILES): Nc1ncnc2c1ncn2[C@@H]1O[C@H](COP(=O)([O-])OP(=O)([O-])OP(=O)(O)O)[C@@H](O)[C@H]1O.[Na+].[Na+] [ATP, Adenosine 5′-triphosphate disodium salt]
- Arg-1 (M2 polarization marker) expression (macrophages): strongly expressed
- P2X7 signaling (P2X7): inhibited P2X7 signaling
- P2Y1 signaling (P2Y1): stimulated P2Y1 signaling

Structure (SMILES): Nc1ncnc2c1ncn2[C@@H]1O[C@H](CO)[C@@H](O)[C@H]1O [Adenosine]
- Osteogenic differentiation of stem cells (stem cells): induced the osteogenic differentiation to a similar level thereto

Structure (SMILES): COc1cccc2c1C(=O)c1c(O)c3c(c(O)c1C2=O)C[C@@](O)(C(=O)CO)C[C@@H]3O[C@H]1C[C@H](N)[C@H](O)[C@H](C)O1 [Doxorubicin (DOX), Doxorubicin hydrochloride]
- ROS production in vivo (L-012 signal) (ROS): has little effect on the ROS release in a short period of time

Structure (SMILES): [Cl][Fe][Cl] [FeCl2, Iron(II) chloride]
- Arg-1 (M2 polarization marker) expression (macrophages): not expressed

Structure (SMILES): CCCn1c(=O)[nH]c2nc(-c3ccc(S(=O)(=O)N4CCN(c5ccc(Cl)cc5)CC4)cc3)[nH]c2c1=O [PSB 603]
- Osteogenic differentiation of hMSCs (hMSCs): osteogenic differentiation of hMSCs was inhibited
